Results: patent US11078164B1, “PTEN binding compounds, formulations, and uses thereof” (University of South Florida, priority 2017, dated 2021)
Entries after “also recorded” stand apart in the source; their conditions may differ.

Columns and labels:
Assay type in all cases: cell-based
p-AKT (Ser473) = assay: Immunoblot of p-AKT (Ser473) in treated A549 cells; details: 6 hours; for expression of p-AKT (Ser473), immunoblot: 40 μM, n=3; for decrease in phosphorylated, active form of AKT (pAKT-Ser473): about 40 μM
Procedure: (§1) PTEN antagonizes PI3K/AKT/S6K pathway activation via its lipid phosphatase function (Stambolic et al., 1998, Cell, October 2; 95(1):29-39, Sun H., et al., 1999, Proc Natl Acad Sci USA. 1999 May 25; 96(11):6199-204 and Song, M. S. et al., 2012, Molecular Cell Biology 13, 283-296). A549 lung adenocarcinoma cells were treated with either γ-AAPeptide #43 or #9 for 6 hours to determine the activity of PI3K/AKT/S6K downstream pathway effectors. There was about a 30 percent and about 70 decrease in the phosphorylated, active form of AKT (pAKT-Ser473) upon treatment with 40 μM γ-AAPeptide #43 (FIG. 2A) or about 40 μM γ-AAPeptide #9 (FIG. 2B) respectively. […] However, direct allosteric effects of these compounds on the structure and catalytic function of the PTEN enzyme activity remains highly plausible.
(§2) Protein Isolation and Immuno-blotting. For treatment with γ-AAPeptides, A549 cells were grown to about 50-60% confluency in 6-well plates, treated with indicated amount of γ-AAPeptide and allowed to incubate for 6 hours at about 5% CO2 and 37° C. After about 6 hours, media was aspirated and cells were lysed in ice cold IP Lysis Buffer (25 mM Tris-HCl pH 7.4, about 150 mM NaCl, about 1% NP-40, about 1 mM EDTA, about 5% glycerol) supplemented with about 100× protease inhibitor cocktail (Sigma Aldrich, St. Louis, Mo.), phosphatase inhibitor cocktail (final concentration about 10 mM sodium azide, about 10 mM NaF, about 4 mM sodium orthovanadate, about 10 mM sodium-molybdate dehydrate, about 4 mM sodium-tartrate dibasic dehydrate, about 5 mM EDTA disodium dehydrate, about 2 mM imidazole), about 1 mM DTT and about 1 mM PMSF. Samples were sonicated at about 10% amplitude on a digital sonifier (Branson Ultrasonics, Dabury, Conn.), centrifuged at about 14,000 rpm for about 10 minutes and the supernatant was collected. Protein concentration was determined using Bradford Dye Reagent (BioRad, Hercules, Calif.). The remaining supernatant was boiled in about 100 μL of 2× Laemmli Buffer containing about 5% β-mercaptoethanol (Sigma Aldrich, St. Louis, Mo.) and subjected to SDS-PAGE gel analysis, followed by immunoblotting. About 20 μg of total proteins from A549 cell extract were separated on a about 12% SDS-PAGE gel and electro-blotted to nitrocellulose membranes (about 0.45 μm; GE Healthcare, Pittsburgh, Pa.). Blots were blocked with about 5% nonfat dry milk or bovine serum albumin in TBST buffer (about 10 mM Tris, pH about 8, about 150 mM NaCl, about 0.1% Tween 20) and incubated with indicated primary antibodies (Table 1). Peroxidase conjugated mouse or rabbit secondary antibodies were used at dilution of about 1:10,000 (Jackson ImmunoResearch, West Grove, Pa.). […]

p-P70 S6K (Thr389) = assay: Immunoblot of p-P70 S6K (Thr389) in treated A549 cells; details: 40 μM, 6 hours; for expression of p-P70 S6K (Thr389), immunoblot: n=3
Procedure: as §1, §2

[1] = tested on: PTEN C-terminus (C-tail) cluster (Ser380, Thr382, Thr383, Ser385); assay: Immunoblot of PTEN C-tail phosphorylation in treated A549 cells; details: about 40 μM
Procedure: as §1
Protein Isolation and Immuno-blotting. For treatment with γ-AAPeptides, A549 cells were grown to about 50-60% confluency in 6-well plates, treated with indicated amount of γ-AAPeptide and allowed to incubate for 6 hours at about 5% CO2 and 37° C. […] Protein concentration was determined using Bradford Dye Reagent (BioRad, Hercules, Calif.). […]

A549 cells [2] = assay: Cell proliferation assay (Cell Counting Kit-8); details: 24 hours treatment; 9000 cells/well; n=6
Procedure: Proliferation Assays. Cell proliferation studies were performed using the Cell Counting Kit-8 (Dojindo Molecular Technologies, Rockville, Md.). A549 cells were plated in a 96-well plate with a cell density of about 9000 cells/well and cultured in F12K medium as described above. Cells were treated with indicated amount of γ-AAPeptide diluted in F12K media for 24 hours. After 24 hours, final cell numbers were assessed as a function of absorbance at 450 nm of reduced WST-(2-(2-methoxy-4-nitrophenyl)-3-(4-nitrophenyl)-5-(2,4-disulfophenyl)-2H-tetrazolium, monosodium salt).

A549 cells [3] = assay: ECIS migration / wound closure assay; details: for wound closure efficiency (continuous impedance sensing): A549 cells, 12 hours prior to wounding, vs control cells; for cell migration (ECIS): A549 lung cancer cells
Procedure: Migration Assay. Migration assay was performed on the ECIS machine (Name, Address). Briefly, A549 cells were grown on electric cell substrate impedance sensing 8-well plate arrays (8W1E; Applied Biophysics, Troy, N.Y.) in F12K media as described above. Confluent cells were treated with media containing γ-AAPeptide at desired concentration for about 12 hours prior to wounding. Cells were wounded using an elevated field pulse of about […] at about 32,000 Hz applied for about 20 seconds, producing a uniform circular lesion of about […] in size, and wound closure was tracked until healing. The impedance (Z) was measured at about 32000 Hz, normalized to its value at the initiation of data acquisition, and plotted as a function of time. Assays were performed in triplicate and reported as mean±S.E. unless stated otherwise (p value of ≤0.05 was considered to be significant).

A549 cells [4] = assay: Flow cytometry cell cycle analysis; details: for cell cycle arrest: 24 hour treatment, vs vehicle treated cells
Procedure: Flow Cytometry Assay for Cell Cycle Analysis. Cell cycle analysis was performed on A549 cells treated with indicated amount of γ-AAPeptide at about 50-60% confluency for about 24 hours. After about 24 hours of indicated γ-AAPeptide treatment, cells were trypsinized and centrifuged at about 2,000 rpm for about 10 minutes. Media and trypsin were aspirated and cells were washed twice with PBS and spun at about 2,000 rpm for about 10 minutes at about 4° C. after each wash. Cells were then stained with trypan blue (Thermo Fisher Scientific, Waltham, Mass.) and counted using a hemocytometer. Cells were resuspended in Phosphate Buffered Saline (PBS) at a density of about 2×10^6 cells/mL. 1 mL of cells was fixed in about 3 mL ice cold absolute ethanol for about 1 hour at about 4° C. After fixing, cells were washed twice with PBS and spun at about 3,000 rpm for about 10 minutes at about 4° C. after each wash. About 1 mL of Propidium Iodide (P1) staining solution (about 3.8 mM sodium citrate, about 40 μg/mL PI and PBS to volume) was added to each cell pellet, along with about 50 μL of RNase A (Qiagen, Hilden, Germany) at a concentration of about 10 μg/mL. Cells were incubated at about 37° C. for about 20 minutes and sub-sequentially stored at 4° C. until analyzed by flow cytometry. Assays were performed in triplicate and reported as mean±S.E. (p value of ≤0.05 was considered to be significant).

Structure (SMILES)	expression of p-AKT (Ser473), immunoblot (p-AKT (Ser473))	decrease in phosphorylated, active form of AKT (pAKT-Ser473) (p-AKT (Ser473))	reduction of phosphorylated, active form of P70S6K (p-P70S6K-Thr389) levels (p-P70 S6K (Thr389))	expression of p-P70 S6K (Thr389), immunoblot (p-P70 S6K (Thr389))	phosphorylation status of the PTEN C-terminus (C-tail) cluster [1]	A549 cell proliferation (A549 cells [2])	wound closure efficiency (continuous impedance sensing) (A549 cells [3]; 20 μM)	cell migration (ECIS) (A549 cells [3])	G1 cell population (A549 cells [4]; 20 μM, 24 hours)	G2 phase cell population (A549 cells [4]; 20 μM, 24 hours)	S phase population (A549 cells [4]; 20 μM, 24 hours)	cell cycle arrest (A549 cells [4])	wound closure efficiency (continuous impedance sensing) (A549 cells [3]; 30 μM)	G1 cell population (A549 cells [4]; 40 μM, 24 hours)	G2 phase cell population (A549 cells [4]; 40 μM, 24 hours)	S phase cell population (A549 cells [4]; 40 μM, 24 hours)
NCCCC[C@H](N)C(=O)N[C@@H](Cc1ccccc1)CN(CC(=O)N(Cc1cccc2ccccc12)Cc1cccc2ccccc12)C(=O)C[C@]12CC3C[C@H](C[C@H](C3)C1)C2 [#9]	significant decrease	about 70%	about 55%	significant decrease	did not appear to alter	reduced A549 cell proliferation in a dose dependent manner; also recorded: Dose-dependent inhibition	decrease in wound closure efficiency	inhibit cell migration	increase	increase	decreased	arrested the cell cycle in both G1 and G2 phases				
NCCCC[C@H](N)C(=O)N[C@@H](Cc1ccccc1)CN(CC(=O)NCc1ccc(-c2ccccc2)cc1)C(=O)CC12CC3CC(CC(C3)C1)C2 [#43]	significant decrease	~30%	about 75%	significant decrease	did not appear to alter	reduced A549 cell proliferation in a dose dependent manner; also recorded: Dose-dependent inhibition		inhibit cell migration				arrest cells in G1 phase	decrease in wound closure efficiency	increase	decreased	decreased
